Experimental data from patent publication US20230233569A1 (Revolution Medicines, Inc., priority 2020, published 2023).
Like-named read-outs stand apart in the source and are kept apart here.

Columns and labels:
KRAS G12C = KRAS G12C (Homo sapiens, UniProt P01116+P62937, G12C); experiment: Ras-Raf disruption / FRET / MOA assay (BRAF RBD); format: biochemical; conditions: KRAS G12C FRET data IC50, Ras-Raf disruption, with Cyclophilin A
How it was run: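 TR-FRET read-out after 1.5 h with anti-His Eu-W1024 (10 nM) and anti-GST APC (50 nM), following 3 h at 25 °C of compound (top 30 μM, 3-fold, 10 points) with 25 μM Cyclophilin A, 12.5 nM GMPPNP-loaded K-Ras G12C and 50 nM BRAF RBD; IC50 reported.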

AsPC-1 (K-Ras G12D) [1] = experiment: CellTiter-Glo cell viability assay; format: cell-based; conditions: Homo sapiens, ASPC1, 120 h
Protocol: Determination of Cell Viability in RAS Mutant Cancer Cell Lines
Protocol: CellTiter-Glo® Cell Viability Assay
Note—The following protocol describes a procedure for monitoring cell viability of K-Ras mutant cancer cell lines in response to a compound of the invention. Other RAS isoforms may be employed, though the number of cells to be seeded will vary based on cell line used.
Test compounds (132.5 nL) were directly dispensed into the assay plates containing cells. […] On day 5, assay plates and their contents were equilibrated to room temperature for approximately 30 minutes. […] Luminescence was measured using the PerkinElmer Enspire. Data were normalized by the following: (Sample signal/Avg. DMSO)*100. The data were fit using a four-parameter logistic fit.

AsPC-1 (K-Ras G12D) [2] = experiment: Potency assay: pERK; format: cell-based; conditions: Homo sapiens
KRAS G12S = KRAS G12S (Homo sapiens, UniProt P01116+P62937, G12S); experiment: Ras-Raf disruption / FRET / MOA assay (BRAF RBD); format: biochemical; conditions: KRAS G12S FRET data IC50, Ras-Raf disruption, with Cyclophilin A
Sequence of KRAS G12S (P01116 1-169 isoform P01116-2 G12S limits assumed): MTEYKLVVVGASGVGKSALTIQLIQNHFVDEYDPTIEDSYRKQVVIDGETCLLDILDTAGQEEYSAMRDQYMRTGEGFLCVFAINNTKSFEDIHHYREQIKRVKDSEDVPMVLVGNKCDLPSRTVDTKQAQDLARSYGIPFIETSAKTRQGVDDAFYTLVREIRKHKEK
Sequence of KRAS G12S (P62937 whole entry): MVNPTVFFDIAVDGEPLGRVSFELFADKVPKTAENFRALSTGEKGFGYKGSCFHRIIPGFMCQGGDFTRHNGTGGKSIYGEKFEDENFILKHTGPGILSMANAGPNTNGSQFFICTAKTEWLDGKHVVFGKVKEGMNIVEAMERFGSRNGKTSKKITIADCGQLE
How it was run: (§1)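 Compound-induced Ras–Cyclophilin A ternary complex disrupting BRAF RBD binding, read as IC50 from reduced TR-FRET ratio relative to DMSO. Final: Ras-GMPPNP 12.5 nM, BRAF RBD 50 nM, Cyclophilin A 25 μM, top compound 30 μM (3-fold, 10 points); 3 h at 25 °C, then 1.5 h with detection antibodies.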

KRAS G13C = KRAS G13C (Homo sapiens, UniProt P01116+P62937, G13C); experiment: Ras-Raf disruption / FRET / MOA assay (BRAF RBD); format: biochemical; conditions: KRAS G13C FRET data IC50, Ras-Raf disruption, with Cyclophilin A
Sequence of KRAS G13C (P01116 1-169 isoform P01116-2 G13C limits assumed): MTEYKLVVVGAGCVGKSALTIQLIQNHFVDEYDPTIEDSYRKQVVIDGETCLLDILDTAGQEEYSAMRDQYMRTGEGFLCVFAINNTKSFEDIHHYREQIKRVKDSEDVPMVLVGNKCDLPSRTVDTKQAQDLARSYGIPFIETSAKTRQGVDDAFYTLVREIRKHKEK
Sequence of KRAS G13C (P62937 whole entry): as the sequence (P62937 whole entry) above
How it was run: as §1

KRAS WT = KRAS WT (Homo sapiens, UniProt P01116+P62937); experiment: Ras-Raf disruption / FRET / MOA assay (BRAF RBD); format: biochemical; conditions: KRAS WT FRET data IC50, Ras-Raf disruption, with Cyclophilin A
Sequence of KRAS WT (P01116 1-169 isoform P01116-2 limits assumed): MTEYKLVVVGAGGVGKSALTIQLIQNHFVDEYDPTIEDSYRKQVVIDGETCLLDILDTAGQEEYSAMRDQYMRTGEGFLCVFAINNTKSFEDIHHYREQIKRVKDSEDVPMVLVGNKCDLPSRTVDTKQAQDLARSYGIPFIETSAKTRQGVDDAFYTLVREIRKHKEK
Sequence of KRAS WT (P62937 whole entry): as the sequence (P62937 whole entry) above
How it was run: as §1

KRAS G12D = KRAS G12D (Homo sapiens, UniProt P01116+P62937, G12D); experiment: Ras-Raf disruption / FRET / MOA assay (BRAF RBD); format: biochemical; conditions: KRAS G12D FRET data IC50, Ras-Raf disruption, with Cyclophilin A
Sequence of KRAS G12D (P01116 1-169 isoform P01116-2 G12D limits assumed): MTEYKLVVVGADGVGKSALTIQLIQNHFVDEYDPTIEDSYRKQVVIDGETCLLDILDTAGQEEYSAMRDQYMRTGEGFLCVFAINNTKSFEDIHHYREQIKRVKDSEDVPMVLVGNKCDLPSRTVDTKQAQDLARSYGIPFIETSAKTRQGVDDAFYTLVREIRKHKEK
Sequence of KRAS G12D (P62937 whole entry): as the sequence (P62937 whole entry) above
How it was run: as §1

KRAS G12V = KRAS G12V (Homo sapiens, UniProt P01116+P62937, G12V); experiment: Ras-Raf disruption / FRET / MOA assay (BRAF RBD); format: biochemical; conditions: KRAS G12V FRET data IC50, Ras-Raf disruption, with Cyclophilin A
Sequence of KRAS G12V (P01116 1-169 isoform P01116-2 G12V limits assumed): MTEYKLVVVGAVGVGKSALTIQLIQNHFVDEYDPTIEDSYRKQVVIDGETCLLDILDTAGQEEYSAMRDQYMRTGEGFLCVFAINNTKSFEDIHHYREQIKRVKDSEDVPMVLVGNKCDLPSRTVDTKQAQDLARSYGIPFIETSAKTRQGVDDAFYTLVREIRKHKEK
Sequence of KRAS G12V (P62937 whole entry): as the sequence (P62937 whole entry) above
How it was run: as §1

NRAS G12C = NRAS G12C (Homo sapiens, UniProt P01111+P62937, G12C); experiment: Ras-Raf disruption / FRET / MOA assay (BRAF RBD); format: biochemical; conditions: NRAS G12C FRET data IC50, NRAS G12C
Sequence of NRAS G12C (P01111 whole entry G12C): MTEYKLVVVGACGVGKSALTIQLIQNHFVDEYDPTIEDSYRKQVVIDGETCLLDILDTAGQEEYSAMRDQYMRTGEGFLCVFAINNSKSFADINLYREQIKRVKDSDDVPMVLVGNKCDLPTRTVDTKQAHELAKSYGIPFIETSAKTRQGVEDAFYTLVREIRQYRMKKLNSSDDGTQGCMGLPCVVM
Sequence of NRAS G12C (P62937 whole entry): as the sequence (P62937 whole entry) above
How it was run: as §1

KRAS G13D = KRAS G13D (Homo sapiens, UniProt P01116+P62937, G13D); experiment: Ras-Raf disruption / FRET / MOA assay (BRAF RBD); format: biochemical; conditions: KRAS G13D FRET data IC50, Ras-Raf disruption, with Cyclophilin A
Sequence of KRAS G13D (P01116 1-169 isoform P01116-2 G13D limits assumed): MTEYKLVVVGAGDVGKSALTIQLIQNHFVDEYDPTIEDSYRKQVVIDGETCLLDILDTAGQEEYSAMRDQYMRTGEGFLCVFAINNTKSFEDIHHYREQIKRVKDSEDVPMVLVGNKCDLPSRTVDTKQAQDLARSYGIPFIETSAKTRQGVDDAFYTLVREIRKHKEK
Sequence of KRAS G13D (P62937 whole entry): as the sequence (P62937 whole entry) above
How it was run: as §1

NRAS Q61R = NRAS Q61R (Homo sapiens, UniProt P01111+P62937, Q61R); experiment: Ras-Raf disruption / FRET / MOA assay (BRAF RBD); format: biochemical
Sequence of NRAS Q61R (P01111 whole entry Q61R): as the sequence (P01111 whole entry G12C) above, with C12G, Q61R counted along it
Sequence of NRAS Q61R (P62937 whole entry): as the sequence (P62937 whole entry) above
How it was run: as §1

NRAS Q61K = NRAS Q61K (Homo sapiens, UniProt P01111+P62937, Q61K); experiment: Ras-Raf disruption / FRET / MOA assay (BRAF RBD); format: biochemical
Sequence of NRAS Q61K (P01111 whole entry Q61K): as the sequence (P01111 whole entry G12C) above, with C12G, Q61K counted along it
Sequence of NRAS Q61K (P62937 whole entry): as the sequence (P62937 whole entry) above
How it was run: as §1

NRAS WT = NRAS WT (Homo sapiens, UniProt P01111+P62937); experiment: Ras-Raf disruption / FRET / MOA assay (BRAF RBD); format: biochemical
Sequence of NRAS WT (P01111 whole entry): as the sequence (P01111 whole entry G12C) above, with C12G counted along it
Sequence of NRAS WT (P62937 whole entry): as the sequence (P62937 whole entry) above
How it was run: as §1

KRAS Q61H = KRAS Q61H (Homo sapiens, UniProt P01116+P62937, Q61H); experiment: Ras-Raf disruption / FRET / MOA assay (BRAF RBD); format: biochemical
Sequence of KRAS Q61H (P01116 1-169 isoform P01116-2 Q61H limits assumed): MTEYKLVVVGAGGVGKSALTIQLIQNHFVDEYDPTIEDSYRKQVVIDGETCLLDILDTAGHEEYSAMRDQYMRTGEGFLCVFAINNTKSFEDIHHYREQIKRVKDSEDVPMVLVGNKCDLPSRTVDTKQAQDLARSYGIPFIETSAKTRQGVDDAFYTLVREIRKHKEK
Sequence of KRAS Q61H (P62937 whole entry): as the sequence (P62937 whole entry) above
How it was run: as §1

[3] = read-out: AsPC-1 Cell Viability assay data IC50, K-Ras G12D, 5-day treatment

Sequence of KRAS G12C (P01116 1-169 isoform P01116-2 G12C limits assumed): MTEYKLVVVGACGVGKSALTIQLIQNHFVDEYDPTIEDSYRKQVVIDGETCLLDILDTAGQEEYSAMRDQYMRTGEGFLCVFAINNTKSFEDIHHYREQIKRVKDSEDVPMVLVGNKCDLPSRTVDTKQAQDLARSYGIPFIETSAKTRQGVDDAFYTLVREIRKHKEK
Sequence of KRAS G12C (P62937 whole entry): as the sequence (P62937 whole entry) above

Row | SMILES | IC50 (KRAS G12C) [nM] | IC50 (AsPC-1 (K-Ras G12D) [1]; [3]) [nM] | EC50 (AsPC-1 (K-Ras G12D) [2]; ASPC1, read-out: pERK EC50) [nM] | IC50 (KRAS G12S) [nM] | IC50 (KRAS G13C) [nM] | IC50 (KRAS WT) [nM] | IC50 (KRAS G12D) [nM] | IC50 (KRAS G12V) [nM] | IC50 (NRAS G12C) [nM] | IC50 (KRAS G13D) [nM] | IC50 (AsPC-1 (K-Ras G12D) [1]; K-Ras G12D, 5-day treatment, read-out: AsPC-1 Cell Viability assay data IC50) [nM] | EC50 (AsPC-1 (K-Ras G12D) [2]; ASPC1, AsPC-1 KRAS G12D, read-out: pERK EC50) [nM] | IC50 (NRAS Q61R) [nM] | IC50 (NRAS Q61K) [nM] | IC50 (NRAS WT) [nM] | IC50 (KRAS Q61H) [nM]
1 | CCn1c(-c2cccnc2[C@H](C)OC)c2c3cc(ccc31)-c1cc(O)cc(c1)C[C@H](NC(=O)[C@H](C(C)C)N(C)C(=O)CN(C)C(=O)[C@@H]1CN1CCO)C(=O)N1CCC[C@H](N1)C(=O)OCC(C)(C)C2 (stereo partly shown) [Example 162] | < 10 | 1000 to 10000 | < 5000 | 10 to 100 | 10 to 100 | 10 to 100 | 100 to 1000 | 10 to 100 | < 10 | 10 to 100 |  |  |  |  |  | 
2 | CCn1c(-c2cccnc2[C@H](C)OC)c2c3cc(ccc31)-c1cc(O)cc(c1)C[C@H](NC(=O)[C@H](C(C)C)N(C)C(=O)[C@]13C[C@H]1CCN3C(=O)[C@@H]1CN1)C(=O)N1CCC[C@H](N1)C(=O)OCC(C)(C)C2 [Example 166] | 100 to 1000 |  |  | 100 to 1000 | 100 to 1000 | 100 to 1000 | 100 to 1000 | 100 to 1000 | 100 to 1000 | 100 to 1000 | 1000 to 10000 | < 5000 | 1000 to 10000 | 1000 to 10000 | 100 to 1000 | 10 to 100
3 | CCn1c(-c2cccnc2[C@H](C)OC)c2c3cc(ccc31)-c1cc(O)cc(c1)C[C@H](NC(=O)[C@H](C(C)C)N(C)C(=O)CN(C)C(=O)[C@H]1CN1CCCN1CCCC1=O)C(=O)N1CCC[C@H](N1)C(=O)OCC(C)(C)C2 (stereo partly drawn) [Example 268, (2R)—N-(2-(((2S)-1-(((6^3S,4S)-1^1-ethyl-2^5-hydroxy-1^2-(2-((S)-1-methoxyethyl)pyridin-3-yl)-10,10-dimethyl-5,7-dioxo-6^1,6^2,6^3,6^4,6^5,6^6-hexahydro-1^1H-8-oxa-1(5,3)-indola-6(1,3)-pyridazina-2(1,3)-benzenacycloundecaphane-4-yl)amino)-3-methyl-1-oxobutan-2-yl)(methyl)amino)-2-oxoethyl)-N-methyl-1-(3-(2-oxopyrrolidin-1-yl)propyl)aziridine-2-carboxamide] | < 10 | 1000 to 10000 | < 5000 | 10 to 100 | 10 to 100 | 10 to 100 | 100 to 1000 | 10 to 100 | < 10 | 100 to 1000 |  |  | 100 to 1000 | 100 to 1000 | 10 to 100 | 10 to 100
4 | CCn1c(-c2cccnc2[C@H](C)OC)c2c3cc(ccc31)-c1cc(O)cc(c1)C[C@H](NC(=O)[C@H](C(C)C)N(C)C(=O)CN(C)C(=O)[C@@H]1CN1CCCN1CCCC1=O)C(=O)N1CCC[C@H](N1)C(=O)OCC(C)(C)C2 (stereo partly shown) [Example 269] | < 10 | 1000 to 10000 | < 5000 | 10 to 100 | 10 to 100 | 10 to 100 | 10 to 100 | 10 to 100 | < 10 | 100 to 1000 |  |  | 100 to 1000 | 100 to 1000 | 10 to 100 | 10 to 100
5 | CCn1c(-c2cccnc2[C@H](C)OC)c2c3cc(ccc31)-c1cc(O)cc(c1)C[C@H](NC(=O)[C@H](C(C)C)N(C)C(=O)CN(C)C(=O)[C@@H]1CN1CC(=O)N(C)C)C(=O)N1CCC[C@H](N1)C(=O)OCC(C)(C)C2 (stereo partly shown) [Example 271] | < 10 | > 10000 | < 5000 | 10 to 100 | 10 to 100 | 10 to 100 | 100 to 1000 | 100 to 1000 | < 10 | 100 to 1000 |  |  | 100 to 1000 | 100 to 1000 | 100 to 1000 | 10 to 100
6 | CCn1c(-c2cccnc2[C@H](C)OC)c2c3cc(ccc31)-c1cc(O)cc(c1)C[C@H](NC(=O)[C@H](C(C)C)N(C)C(=O)CN(C)C(=O)[C@H]1CN1CCCN1CCOC1=O)C(=O)N1CCC[C@H](N1)C(=O)OCC(C)(C)C2 (stereo partly shown) [Example 272] | < 10 | 1000 to 10000 | < 5000 | 10 to 100 | 10 to 100 | 10 to 100 | 100 to 1000 | 10 to 100 | < 10 | 100 to 1000 |  |  | 100 to 1000 | 100 to 1000 | 10 to 100 | 10 to 100
7 | CCn1c(-c2cccnc2[C@H](C)OC)c2c3cc(ccc31)-c1cc(O)cc(c1)C[C@H](NC(=O)[C@H](C(C)C)N(C)C(=O)CN(C)C(=O)[C@H]1CN1C1COC1)C(=O)N1CCC[C@H](N1)C(=O)OCC(C)(C)C2 (stereo partly shown) [Example 275] | 10 to 100 | 1000 to 10000 | < 5000 | 10 to 100 | 10 to 100 | 100 to 1000 | 100 to 1000 | 100 to 1000 | 10 to 100 | 100 to 1000 |  |  | 100 to 1000 | 100 to 1000 | 100 to 1000 | 10 to 100
8 | CCn1c(-c2cccnc2[C@H](C)OC)c2c3cc(ccc31)-c1cc(O)cc(c1)C[C@H](NC(=O)[C@H](C(C)C)N(C)C(=O)CN(C)C(=O)[C@@H]1CN1CC1COC1)C(=O)N1CCC[C@H](N1)C(=O)OCC(C)(C)C2 (stereo partly shown) [Example 278] | 10 to 100 | 1000 to 10000 | < 5000 | 10 to 100 | 10 to 100 | 10 to 100 | 10 to 100 | 10 to 100 | < 10 | 100 to 1000 |  |  | 100 to 1000 | 100 to 1000 | 10 to 100 | 10 to 100
9 | CCn1c(-c2cccnc2[C@H](C)OC)c2c3cc(ccc31)-c1cc(O)cc(c1)C[C@H](NC(=O)[C@H](C(C)C)N(C)C(=O)CN(C)C(=O)[C@@H]1N[C@@H]1C1COC1)C(=O)N1CCC[C@H](N1)C(=O)OCC(C)(C)C2 [Example 281] | < 10 | 100 to 1000 | < 5000 | < 10 | 10 to 100 | 10 to 100 | 10 to 100 | 10 to 100 | < 10 | 10 to 100 |  |  | 100 to 1000 | 10 to 100 | 10 to 100 | < 10
10 | CCn1c(-c2cccnc2[C@H](C)OC)c2c3cc(ccc31)-c1cc(O)cc(c1)C[C@H](NC(=O)[C@H](C(C)C)N(C)C(=O)CN(C)C(=O)[C@H]1N[C@H]1C1COC1)C(=O)N1CCC[C@H](N1)C(=O)OCC(C)(C)C2 [Example 282] | 10 to 100 | 1000 to 10000 | < 5000 | 10 to 100 | < 10 | 10 to 100 | 10 to 100 | 10 to 100 | 10 to 100 | 10 to 100 |  |  | 100 to 1000 | 100 to 1000 | 10 to 100 | 10 to 100
